Experimental data: ChEMBL document CHEMBL3046587, “Baseline sensitivity of Monilinia laxa from Greece to fenhexamid and analysis of fenhexamid-resistant mutants” (Crop Prot, 2013)
≈ marks a conversion by molar mass, not a printed value.

Columns and labels:
Type in all cases: functional, organism-based
Monilinia laxa [1] = assay: Fungitoxicity against wild type Monilinia laxa K2 assessed as reduction in mycelial growth measured at 25 degC after 4 days; details: K2, 96 h
Monilinia laxa [2] = assay: Fungitoxicity against highly fenhexamid resistant Monilinia laxa MF-2 assessed as reduction in mycelial growth measured at 25 degC after 4 days; details: MF-2, 96 h
Monilinia laxa [3] = assay: Fungitoxicity against highly fenhexamid resistant Monilinia laxa MF-3 assessed as reduction in mycelial growth measured at 25 degC after 4 days; details: MF-3, 96 h
Monilinia laxa [4] = assay: Fungitoxicity against moderately fenhexamid resistant Monilinia laxa MF-7 assessed as reduction in mycelial growth measured at 25 degC after 4 days; details: MF-7, 96 h
Monilinia laxa [5] = assay: Fungitoxicity against highly fenhexamid resistant Monilinia laxa MF-5 assessed as reduction in mycelial growth measured at 25 degC after 4 days; details: MF-5, 96 h
Monilinia laxa [6] = assay: Fungitoxicity against moderately fenhexamid resistant Monilinia laxa MF-4 assessed as reduction in mycelial growth measured at 25 degC after 4 days; details: MF-4, 96 h
Monilinia laxa [7] = assay: Fungitoxicity against moderately fenhexamid resistant Monilinia laxa MF-22 assessed as reduction in mycelial growth measured at 25 degC after 4 days; details: MF-22, 96 h
Monilinia laxa [8] = assay: Fungitoxicity against moderately fenhexamid resistant Monilinia laxa MF-8 assessed as reduction in mycelial growth measured at 25 degC after 4 days; details: MF-8, 96 h
Monilinia laxa [9] = assay: Fungitoxicity against moderately fenhexamid resistant Monilinia laxa MF-6 assessed as reduction in mycelial growth measured at 25 degC after 4 days; details: MF-6, 96 h
Monilinia laxa [10] = assay: Fungitoxicity against moderately fenhexamid resistant Monilinia laxa MF-1 assessed as reduction in mycelial growth measured at 25 degC after 4 days; details: MF-1, 96 h

SMILES | EC50 (Monilinia laxa [1]) [µg/mL] | EC50 (Monilinia laxa [2]) [µg/mL] | EC50 (Monilinia laxa [3]) [µg/mL] | EC50 (Monilinia laxa [4]) [µg/mL] | EC50 (Monilinia laxa [5]) [µg/mL] | EC50 (Monilinia laxa [6]) [µg/mL] | EC50 (Monilinia laxa [7]) [µg/mL] | EC50 (Monilinia laxa [8]) [µg/mL] | EC50 (Monilinia laxa [9]) [µg/mL] | EC50 (Monilinia laxa [10]) [µg/mL]
CC(C)NC(=O)N1CC(=O)N(c2cc(Cl)cc(Cl)c2)C1=O [IPRODIONE] | 0.25 (≈ 0.757 µM) | 0.24 (≈ 0.727 µM) | 0.25 (≈ 0.757 µM) | 0.23 (≈ 0.697 µM) | 0.25 (≈ 0.757 µM) | 0.19 (≈ 0.575 µM) | 0.21 (≈ 0.636 µM) | 0.35 (≈ 1.06 µM) | 0.32 (≈ 0.969 µM) | 0.26 (≈ 0.787 µM)
CCCN(CCOc1c(Cl)cc(Cl)cc1Cl)C(=O)n1ccnc1 [PROCHLORAZ] | 0.01 (≈ 0.0265 µM) | 0.07 (≈ 0.186 µM) | 0.02 (≈ 0.0531 µM) | 0.08 (≈ 0.212 µM) | 0.01 (≈ 0.0265 µM) | 0.04 (≈ 0.106 µM) | 0.02 (≈ 0.0531 µM) | 0.02 (≈ 0.0531 µM) | 0.03 (≈ 0.0796 µM) | 0.01 (≈ 0.0265 µM)
COC(=O)N(OC)c1ccccc1COc1ccn(-c2ccc(Cl)cc2)n1 [PYRACLOSTROBIN] | 0.3 (≈ 0.774 µM) | 0.5 (≈ 1.29 µM) | 0.4 (≈ 1.03 µM) | 0.4 (≈ 1.03 µM) | 0.4 (≈ 1.03 µM) | 0.3 (≈ 0.774 µM) | 0.2 (≈ 0.516 µM) | 0.4 (≈ 1.03 µM) | 0.1 (≈ 0.258 µM) | 0.2 (≈ 0.516 µM)
CCCN(CC)CC1COC2(CCC(C(C)(C)C)CC2)O1 (stereo not given) [SPIROXAMINE] | 3.5 (≈ 11.8 µM) | 3.7 (≈ 12.4 µM) | 3.6 (≈ 12.1 µM) | 3.5 (≈ 11.8 µM) | 3.5 (≈ 11.8 µM) | 2.9 (≈ 9.75 µM) | 3.3 (≈ 11.1 µM) | 3.2 (≈ 10.8 µM) | 12 (≈ 40.3 µM) | 3.8 (≈ 12.8 µM)
CCCCCCCCCCCCCN1CC(C)OC(C)C1 (stereo not given) [TRIDEMORPH] | 0.1 (≈ 0.336 µM) | 0.07 (≈ 0.235 µM) | 0.11 (≈ 0.37 µM) | 0.09 (≈ 0.302 µM) | 0.08 (≈ 0.269 µM) | 0.12 (≈ 0.403 µM) | 0.1 (≈ 0.336 µM) | 0.4 (≈ 1.34 µM) | 0.6 (≈ 2.02 µM) | 0.4 (≈ 1.34 µM)
